Test results taken from patent US20040248937A1, “Substituted phenylalkanoic acids for the treatment of diabetes” (The Institute for Pharmaceutical Discovery LLC, priority 2003, published 2004).

Test system: insulin resistant rats
Assay: Euglycemic insulin clamp in High Fat Diet fed insulin resistant rats after a single oral dose
Format: in vivo, Male Wistar rats
Details: for EGP (endogenous glucose production) / GIR (glucose infusion rate) / GU (glucose utilization): 4 hrs before clamp, mean ± sem
Description: Male Wistar rats were fed a High Fat Diet for at least 4 weeks. Jugular vein and carotid artery cannulations were performed one week prior to the clamp experiment. Test compound (Compound 15) is administered p.o. 4 hrs before the clamp and labeled 3-3H-glucose is infused 1 hr prior to calculated endogenous glucose production (EGP). Insulin is infused at a rate of 0.75 U/kg/hr raising plasma insulin levels to […]. To maintain euglycemia (80 mg/dl), unlabeled glucose is infused at a variable rate and adjusted every 10 minutes.

SMILES: CCc1ccc(-c2sc(NC(=O)c3ccc(S(=O)(=O)N[C@@H](Cc4ccccc4)C(=O)O)cc3)nc2-c2ccc(Cl)cc2)cc1 [Compound 15, N-{[4-({[4-(4-chlorophenyl)-5-(4-ethylphenyl)-1,3-thiazol-2-yl]amino}carbonyl)phenyl]sulfonyl}phenylalanine]
- EGP (endogenous glucose production) (10 mg/kg single oral dose): 1.4 ± 1.8 mg/kg/min
- GIR (glucose infusion rate) (10 mg/kg single oral dose): 29.6 ± 5.0 mg/kg/min
- GU (glucose utilization) (10 mg/kg single oral dose): 28.3 ± 6.6 mg/kg/min
- effect on endogenous glucose production (EGP) (30 mg/kg p.o., result in words): enhanced suppression
- effect on glucose infusion rate (GIR) (30 mg/kg p.o., result in words): significantly increased
- effect on glucose utilization (GU) (30 mg/kg p.o., result in words): augmented stimulation
- EGP (endogenous glucose production) (30 mg/kg single oral dose): 0.16 ± 0.5 mg/kg/min
- GIR (glucose infusion rate) (30 mg/kg single oral dose): 30.8 ± 2.2 mg/kg/min
- GU (glucose utilization) (30 mg/kg single oral dose): 30.7 ± 2.00 mg/kg/min
- EGP (endogenous glucose production) (60 mg/kg single oral dose): 0.77 ± 0.4 mg/kg/min
- GIR (glucose infusion rate) (60 mg/kg single oral dose): 38.0 ± 2.2 mg/kg/min
- GU (glucose utilization) (60 mg/kg single oral dose): 37.3 ± 2.3 mg/kg/min
